From the NIST ThermoML archive (doi:10.1021/acs.jced.7b00564)

Test: xn = mol fraction of the nth substance listed
Details: Gas, isochoric method

C=C(F)C(F)(F)F [2,3,3,3-tetrafluoro-1-propene] + CC(C)C
Details | specific volume [m3/kg]
303.15 K, 163.5 kPa, x2 = 0.472 | 0.1698
303.15 K, 180.2 kPa, x2 = 0.606 | 0.1663
303.15 K, 246.7 kPa, x2 = 0.234 | 0.0939
303.15 K, 260.6 kPa, x2 = 0.772 | 0.1279
303.15 K, 269.3 kPa, x2 = 0.4 | 0.0942
308.15 K, 166.4 kPa, x2 = 0.472 | 0.1699
308.15 K, 183.3 kPa, x2 = 0.606 | 0.1664
308.15 K, 251.2 kPa, x2 = 0.234 | 0.094
308.15 K, 265.4 kPa, x2 = 0.772 | 0.1279
308.15 K, 274.3 kPa, x2 = 0.4 | 0.0942
308.15 K, 426.8 kPa, x2 = 0.85 | 0.0797
313.15 K, 169.2 kPa, x2 = 0.472 | 0.1699
313.15 K, 186.5 kPa, x2 = 0.606 | 0.1664
313.15 K, 255.6 kPa, x2 = 0.234 | 0.094
313.15 K, 270.2 kPa, x2 = 0.772 | 0.1279
313.15 K, 279.2 kPa, x2 = 0.4 | 0.0943
313.15 K, 435.6 kPa, x2 = 0.85 | 0.0797
318.15 K, 172.1 kPa, x2 = 0.472 | 0.17
318.15 K, 189.7 kPa, x2 = 0.606 | 0.1665
318.15 K, 260.1 kPa, x2 = 0.234 | 0.094
318.15 K, 275.1 kPa, x2 = 0.772 | 0.1279
318.15 K, 284.2 kPa, x2 = 0.4 | 0.0943
318.15 K, 444.2 kPa, x2 = 0.85 | 0.0797
323.15 K, 174.7 kPa, x2 = 0.472 | 0.17
323.15 K, 192.9 kPa, x2 = 0.606 | 0.1665
323.15 K, 264.6 kPa, x2 = 0.234 | 0.094
323.15 K, 279.9 kPa, x2 = 0.772 | 0.128
323.15 K, 289.2 kPa, x2 = 0.4 | 0.0943
323.15 K, 452.8 kPa, x2 = 0.85 | 0.0797
328.15 K, 177.5 kPa, x2 = 0.472 | 0.17
328.15 K, 196 kPa, x2 = 0.606 | 0.1665
328.15 K, 269 kPa, x2 = 0.234 | 0.094
328.15 K, 284.6 kPa, x2 = 0.772 | 0.128
328.15 K, 294.1 kPa, x2 = 0.4 | 0.0943
328.15 K, 461.2 kPa, x2 = 0.85 | 0.0797
333.15 K, 180.3 kPa, x2 = 0.472 | 0.1701
333.15 K, 199.2 kPa, x2 = 0.606 | 0.1666
333.15 K, 273.4 kPa, x2 = 0.234 | 0.0941
333.15 K, 289.4 kPa, x2 = 0.772 | 0.128
333.15 K, 299 kPa, x2 = 0.4 | 0.0944
333.15 K, 469.7 kPa, x2 = 0.85 | 0.0798
338.15 K, 183.1 kPa, x2 = 0.472 | 0.1701
338.15 K, 202.3 kPa, x2 = 0.606 | 0.1666
338.15 K, 277.8 kPa, x2 = 0.234 | 0.0941
338.15 K, 294.2 kPa, x2 = 0.772 | 0.1281
338.15 K, 303.9 kPa, x2 = 0.4 | 0.0944
338.15 K, 477.9 kPa, x2 = 0.85 | 0.0798
343.15 K, 185.9 kPa, x2 = 0.472 | 0.1701
343.15 K, 205.5 kPa, x2 = 0.606 | 0.1666
343.15 K, 282.2 kPa, x2 = 0.234 | 0.0941
343.15 K, 298.9 kPa, x2 = 0.772 | 0.1281
343.15 K, 308.8 kPa, x2 = 0.4 | 0.0944
343.15 K, 486.3 kPa, x2 = 0.85 | 0.0798
348.15 K, 188.7 kPa, x2 = 0.472 | 0.1702
348.15 K, 208.6 kPa, x2 = 0.606 | 0.1667
348.15 K, 286.6 kPa, x2 = 0.234 | 0.0941
348.15 K, 303.6 kPa, x2 = 0.772 | 0.1281
348.15 K, 313.5 kPa, x2 = 0.4 | 0.0944
348.15 K, 494.6 kPa, x2 = 0.85 | 0.0798
353.15 K, 191.5 kPa, x2 = 0.472 | 0.1702
353.15 K, 211.8 kPa, x2 = 0.606 | 0.1667
353.15 K, 291 kPa, x2 = 0.234 | 0.0941
353.15 K, 308.1 kPa, x2 = 0.772 | 0.1281
353.15 K, 318.3 kPa, x2 = 0.4 | 0.0944
353.15 K, 502.9 kPa, x2 = 0.85 | 0.0798
358.15 K, 194.3 kPa, x2 = 0.472 | 0.1703
358.15 K, 214.9 kPa, x2 = 0.606 | 0.1667
358.15 K, 295.4 kPa, x2 = 0.234 | 0.0942
358.15 K, 312.6 kPa, x2 = 0.772 | 0.1282
358.15 K, 323.2 kPa, x2 = 0.4 | 0.0945
358.15 K, 511.2 kPa, x2 = 0.85 | 0.0798
363.15 K, 197.1 kPa, x2 = 0.472 | 0.1703
363.15 K, 218 kPa, x2 = 0.606 | 0.1668
363.15 K, 299.8 kPa, x2 = 0.234 | 0.0942
363.15 K, 328.1 kPa, x2 = 0.4 | 0.0945
363.15 K, 519.5 kPa, x2 = 0.85 | 0.0799
368.15 K, 200.1 kPa, x2 = 0.472 | 0.1703
368.15 K, 221.1 kPa, x2 = 0.606 | 0.1668
368.15 K, 304.1 kPa, x2 = 0.234 | 0.0942
368.15 K, 332.9 kPa, x2 = 0.4 | 0.0945
368.15 K, 527.7 kPa, x2 = 0.85 | 0.0799
373.15 K, 202.9 kPa, x2 = 0.472 | 0.1704
373.15 K, 224.3 kPa, x2 = 0.606 | 0.1669
373.15 K, 308.5 kPa, x2 = 0.234 | 0.0942
373.15 K, 337.7 kPa, x2 = 0.4 | 0.0945
373.15 K, 535.9 kPa, x2 = 0.85 | 0.0799
378.15 K, 205.7 kPa, x2 = 0.472 | 0.1704
378.15 K, 227.5 kPa, x2 = 0.606 | 0.1669
378.15 K, 313 kPa, x2 = 0.234 | 0.0942
378.15 K, 342.6 kPa, x2 = 0.4 | 0.0945
378.15 K, 544.1 kPa, x2 = 0.85 | 0.0799
383.15 K, 208.5 kPa, x2 = 0.472 | 0.1704
383.15 K, 230.6 kPa, x2 = 0.606 | 0.1669
383.15 K, 317.4 kPa, x2 = 0.234 | 0.0943
383.15 K, 347.4 kPa, x2 = 0.4 | 0.0946
383.15 K, 552.4 kPa, x2 = 0.85 | 0.0799
